From US10973896B2, “Treatment or prevention of melanoma using photochemical internalization of a melanoma antigen” (PCI Biotech AS, priority 2014, dated 2021)

Assays:
Type in all cases: in vivo, C57BL/6 mice
[1] = system: OVA-expressing B16 melanoma cells; experiment: Prophylactic vaccination against intradermal melanoma challenge (Example 1); conditions: B16 cells intradermally five days after immunisation; FIG. 1D
Description: C57BL/6 mice were immunised at 6-10 weeks of age. […] The next day, the fur was shaven off the abdominal region and 100 μl of the vaccine preparations were injected intradermally. The doses of OVA and TPCS2a were 10 μg and 100 μg, respectively.
If not otherwise stated, C57BL/6 mice were vaccinated as described above 4-5 days prior to, or 7-8 days after, the tumour challenge with 500,000 OVA-expressing B16-melanoma cells injected intradermally into one of the mouse flanks; 10,000 OT-I cells were transferred intravenously to the recipient one day before prophylactic vaccination, or one day before B16 injection in the therapeutic vaccination model. […] The tumour growth was monitored by measuring the size of the neoplasm with a calliper.

[2] = system: OVA-expressing B16 melanoma cells; experiment: Therapeutic vaccination of melanoma-bearing mice (Example 1); conditions: immunised after appearance of tumours under the skin; FIG. 2A
[3] = system: splenocytes re-stimulated with SIINFEKL; experiment: IL-2 and IFN-γ ELISA of re-stimulated splenocytes (Example 2); conditions: day 11 splenocytes, 10 μg OVA alone, or with PCI at 25 μg TPCS2a
Description: Alternatively, 2×10^5 splenocytes were re-stimulated in 96-well plates with OVA protein or the SIINFEKL. After 24 and 72 hours, supernatants were collected and analysed for IL-2 or IFN-γ by ELISA (eBioscience—performed according to the manufacturer's instructions).

[4] = system: CD8, CD44 and IFN-γ positive cells; experiment: Intracellular IFN-γ staining after SIINFEKL re-stimulation (Example 2)
Description: The frequency of OVA-specific CD8 T-cells in blood was monitored by staining the cells with anti-CD8 antibody and H-2K^b/SIINFEKL ProS pentamer (Proimmune, Oxford, UK) for analysis by flow cytometry. The activation status of the cells was further analysed by testing the expression of CD44 and CD69 by flow cytometry. Intracellular staining for IFN-γ was done after overnight stimulation of splenocytes in 24-well plates with the CD8 epitope OVA257-264 (SIINFEKL) at 37 ° C. Brefeldin A was added during the last 4 hours. The cells were then washed and fixed with 4% formaldehyde in PBS for 10 min on ice. Anti-CD16/32 was added to block unspecific binding to Fc receptors. The cells were then permeabilised with 0.1% NP40 in PBS for 3 min and washed before staining with anti-IFN-γ, anti-CD8 and ant-CD44 antibodies (eBioscience or BD Pharmingen). The cells were acquired using FACSCanto (BD Biosciences, San Jose, USA) and analysed using FlowJo 8.5.2 software (Tree Star, Inc., Ashland, Oreg.).

[5] = system: spleen cells restimulated by SIINFEKL peptide; experiment: Poly(IC) and CpG experiment, IFN-gamma ELISA of restimulated spleen cells (Example 4); conditions: day 14 spleen cells; FIG. 19B
Description: For ELISA analysis 2×10^5 splenocytes were re-stimulated in 96-well plates with 0.005 μg/ml of the SIINFEKL peptide. After 72 hours, supernatants were collected and analysed for IFN-γ by ELISA (eBioscience—performed according to the manufacturer's instructions).
The experiment was performed as described under Materials and Methods, and mouse blood samples from day 7 after vaccination were analysed by flow cytometry as described. Spleen cells from day 14 were restimulated by SIINFEKL peptide and analysed by Interferon-gamma ELISA as described. All mice received OT-1 cells as described. • The following experimental groups were included: • 1. Untreated: Mice received OT-1 cells, but were not vaccinated or illuminated. • 2. OVA: Mice were vaccinated with 10 μg of OVA. They were not illuminated. • 3. OVA 100 μg: Mice were vaccinated with a mixture of 100 μg OVA. They were not illuminated. • 4. OVA 10 μg PCI: Mice were vaccinated with a mixture of 10 μg OVA+150 μg TPCS2a. Illuminated as described. • 5. CpG OVA: Mice were vaccinated with a mixture of 10 μg OVA+50 μg ODN2935 CpG oligonucleotide. They were not illuminated. • 6. CpG OVA/PCI: Mice were vaccinated with a mixture of 10 μg OVA+50 μg ODN2935 CpG oligonucleotide+150 μg TPCS2a. Illuminated as described. • 7. Poly(IC) OVA: Mice were vaccinated with a mixture of 10 μg OVA+50 μg Poly(IC). They were not illuminated. • 8. […]

[6] = system: OVA-expressing B16-melanoma tumours; experiment: Histological analysis of tumour and tumour infiltrates (Example 1); conditions: immune histochemistry; FIG. 3A
Description: C57BLJ6 mice received 500,000 OVA-expressing B16-melanoma cells intradermally as described above. Six days later, the mice were vaccinated with 10 μg OVA ±100 μg TPCS2a as described above. On day 7, the mice were treated with 4.86 J/cm2 light. On day 15, the mice were euthanized and the tumours excised and cut in two pieces, one snap frozen in liquid nitrogen and one fixed in formalin (2 days) and 60% ethanol before embedded in paraffin. The frozen tissues were sectioned and stained with anti-mouse CD8, CD4, and caspase-3 antibodies for immune histochemistry. Paraffin sections were stained with haematoxylin and eosin.

OVA-expressing B16 cells = experiment: Metastatic potential of melanoma, lung melanoma spots after intravenous B16 (Example 1); conditions: B16 melanoma cells given intravenously after immunisation; FIG. 4
Description: C57BLJ6 mice were vaccinated as above with OVA with or without TPSC2a and challenged four days later with 500,000 OVA-expressing B16 cells given by intravenous injection. On day 19, mice were euthanized and spleens and lungs were harvested. The lungs were analysed by counting melanoma spots as a measure for metastasis. Spleen cells were analysed by flow cytometry for CD8 T-cell activation as described above.

OVA: Chicken ovalbumin protein, model antigen expressed by the transfected B16 melanoma cells
mice that developed tumours [1]: Fifty | growth of established tumours [2]: grew readily | IL-2 secretion by ELISA ([3]; 24 hours): weak but clearly measurable | IFN-γ secretion by ELISA ([3]; 72 hours): not IFN-γ secretion | responders for IFN-γ production in splenocytes (better responders among mice tested) ([4]; day 11, 10 μg OVA alone, or OVA and PCI (ten mice, 25 and 250 μg TPCS2a)): weak responders in all mice tested | increase in frequency of IFN-γ-producing CD44-positive CD8 cells compared to control mice with OT-I transfer only ([4]; day 14 PBMCs, OVA alone, or PCI with illumination at 2 hours): 4 fold | frequencies of CD44-positive IFN-γ producing cells in splenocytes ([4]; day 23, FIG. 7E right panel): barely detectable frequencies | IFN-gamma ELISA after restimulation of spleen cells with SIINFEKL peptide [5]: virtually no effect | infiltration of CD8 T cells into the intradermal tumour [6]: no benefit compared to no treatment | melanoma spots (lung metastases) on the lung, average (OVA-expressing B16 cells): approx. 50
